# Measurements from EP0584290B1, “ENDOTHELIN ANTAGONISTS” (WARNER-LAMBERT COMPANY, priority 1991, dated 1992).
# pIC50: −log10 of the molar value. Square brackets hold non-standard residues; d marks the D form. Ends that are not written are not given here. Peptide text beside a SMILES is read from it. d1Nal = N[C@H](Cc1cccc2ccccc12)C(=O)O
# Tests used:
# [1] = system: ET receptor; details: relative to ET-1; cited from earlier work
# [2] = target: endothelin receptor, rat heart ventricle; experiment: [125I]-ET-1 binding assay in rat heart ventricle; details: [125I]-ET-1, rat heart ventricle (10 µg), 37°C, 2 hours
# Protocol: (§1) The compounds of Formula I are valuable antagonists of endothelin. […] Thus, the compounds of Formula I were tested for their ability to inhibit [^125I]-ET-1([^125I]-Endothelin-1) binding in a receptor assay. The binding of the compounds of Formula I is determined by incubation (37°C, 2 hours) of a compound of Formula I with [^125I]-ET-1 and the tissue (rat heart ventricle (10 µg)) in 50 mM Tris(hydroxymethyl)aminomethane hydrochloride (Tris-HCl) (pH 7.4), 5 mM ethylenediamine tetraacetic acid (EDTA), 2 mM ethylene glycol bis(β-aminoethyl ether)N,N,N',N'-tetraacetic acid (EGTA), 100 µM phenylmethylsulfonyl fluoride (PMSF), and 100 µM bacitracin containing protease inhibitors (total volume of 0.5 mL). IC50 values are calculated by weighing nonlinear regression curve-fitting to the mass-action (Langmuir) equation. The functional activity of compounds of Formula I is determined in Rat-1 cells by measuring intracellular levels of second messengers. Thus, cells were prelabeled with [^3H]-inositol and endothelin-stimulated accumulation of total [^3H]-inositol phosphates in the presence of Li^+ is monitored using anion exchange chromatography as described by Muldoon, L. L., et al, Journal of Biological Chemistry, Volume 264, pages 8529-8536 (1989) and Dudley, D. T., et al, Molecular Pharmacology, Volume 38, pages 370-377 (1990). Antagonist activity is assessed as the ability of added compounds to reduce endothelin-stimulated inositol phosphate accumulation. Antagonist activity was also measured by the ability of added compounds to reduce endothelin-stimulated arachidonic acid release in cultured vascular smooth muscle cells as (AAR) described in Reynolds, E., Mok, K., Faseb J., 1991, 5, A1066. The data in the table show the endothelin antagonist activity of representative compounds of Formula I. TABLE 1
# [3] = target: T1, Rat-1 cells (Rattus norvegicus, UniProt P26684); experiment: Endothelin-stimulated inositol phosphate (IP) accumulation in Rat-1 cells; assay type: cell-based
# T1 sequence (P26684 21-426): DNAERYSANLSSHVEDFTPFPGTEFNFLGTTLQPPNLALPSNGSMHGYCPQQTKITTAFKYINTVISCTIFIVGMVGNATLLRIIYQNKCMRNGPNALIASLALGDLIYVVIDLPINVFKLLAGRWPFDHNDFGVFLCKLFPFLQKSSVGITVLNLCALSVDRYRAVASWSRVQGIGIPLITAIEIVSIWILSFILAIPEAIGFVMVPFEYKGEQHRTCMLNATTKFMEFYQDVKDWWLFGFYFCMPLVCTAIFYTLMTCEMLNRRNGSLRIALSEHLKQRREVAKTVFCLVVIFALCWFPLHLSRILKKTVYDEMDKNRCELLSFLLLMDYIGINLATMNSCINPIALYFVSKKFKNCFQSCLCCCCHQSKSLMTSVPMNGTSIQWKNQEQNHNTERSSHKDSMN
# Protocol: as §1, with “Antagonist activity is assessed as the ability of added compounds to reduce endothelin-stimulated inositol phosphate accumulation. Antagonist activity was also measured by the ability of added compounds to reduce endothelin-stimulated arachidonic acid release in cultured vascular smooth muscle cells as (AAR) described in Reynolds, E., Mok, K., Faseb J., 1991, 5, A1066. The data in the table show the endothelin antagonist activity of representative compounds of Formula I. TABLE 1” left out
Molecule,pIC50 [2],further results
"ET[1-20]: ET-1 analogue without the C-terminal amino acid (Trp-21) (CSCSSLMDKECVYFCHLDII; not fully specified (bridges); ends and bridges not checked; UniProt P05305 53-72, looked up, fragment)",–,less functional activity [1]: approximately 1000 fold
"CC[C@H](C)[C@H](NC(=O)[C@H](CC(=O)O)NC(=O)[C@@H](Cc1ccccc1)NC(C)=O)C(=O)N[C@H](C(=O)N[C@@H](Cc1c[nH]c2ccccc12)C(=O)O)[C@@H](C)CC [Example 11, Ac-D-Phe-Asp-Ile-Ile-Trp] (Ac-[dF]DIIW-OH)",5.67,–
"CC[C@H](C)[C@H](NC(=O)[C@H](CC(=O)O)NC(=O)[C@H](CC(C)C)NC(=O)[C@@H](Cc1ccccc1)NC(C)=O)C(=O)N[C@H](C(=O)N[C@@H](Cc1c[nH]c2ccccc12)C(=O)O)[C@@H](C)CC [Example 1, Ac-D-Phe-Leu-Asp-Ile-Ile-Trp] (Ac-[dF]LDIIW-OH)",6.14,–
"CC[C@@H](C)[C@@H](NC(=O)[C@@H](NC(=O)[C@@H](CC(=O)O)NC(=O)[C@H](CC(C)C)NC(=O)[C@@H](Cc1c[nH]cn1)NC(C)=O)[C@@H](C)CC)C(=O)N[C@@H](Cc1c[nH]c2ccccc12)C(=O)O [Example 7, Ac-D-His-Leu-D-Asp-Ile-D-Ile-Trp] (Ac-[dH]L[dD]I[dI]W-OH)",5.22,–
"CC[C@H](C)[C@H](NC(=O)[C@H](CC(=O)O)NC(=O)[C@H](CC(C)C)NC(=O)[C@@H](Cc1ccccc1)NC(C)=O)C(=O)N[C@@H](Cc1c[nH]c2ccccc12)C(=O)O [Example 6, Ac-D-Phe-Leu-Asp-Ile-Trp] (Ac-[dF]LDIW-OH)",4.61,–
"CC[C@H](C)[C@H](NC(=O)[C@H](CC(=O)O)NC(=O)[C@H](CC(C)C)NC(=O)[C@H](N)Cc1cccc2ccccc12)C(=O)N[C@H](C(=O)N[C@@H](Cc1c[nH]c2ccccc12)C(=O)O)[C@@H](C)CC [Example 4, D-1-Nal-Leu-Asp-Ile-Ile-Trp] (H-[d1Nal]LDIIW-OH)",–,inhibition at 50 µM [3]: 53%
